Tests used:
Test in all cases: relative viability (nuclei count vs DMSO), 5 days (fraction); higher = more cells survive
Adavosertib + Linsitinib = compound: C=CCn1c(=O)c2cnc(Nc3ccc(N4CCN(C)CC4)cc3)nc2n1-c1cccc(C(C)(C)O)n1 [Adavosertib] + C[C@]1(O)C[C@@H](c2nc(-c3ccc4ccc(-c5ccccc5)nc4c3)c3c(N)nccn32)C1 [Linsitinib] (partner 1 µM)
Summary of the method: (§1)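 The day after seeding in 1536-well plates, lung cancer cell lines were treated by pin tool with a single drug, or with a fixed anchor-drug dose together with five library-drug doses (not always all listed) in √10 steps. After 5 days, a combined fix-and-stain solution (final 0.05% Triton X-100, 1% formaldehyde, 1 ug/ml Hoechst) was added. Nuclei counted on 4× images gave relative viability as treated counts over vehicle counts, reported as the median of duplicate plates.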

Adavosertib + OSI-027 = compound: C=CCn1c(=O)c2cnc(Nc3ccc(N4CCN(C)CC4)cc3)nc2n1-c1cccc(C(C)(C)O)n1 [Adavosertib] + COc1cccc2cc(-c3nc([C@H]4CC[C@H](C(=O)O)CC4)n4ncnc(N)c34)[nH]c12 [OSI-027] (partner 0.5 µM)
Summary of the method: as §1

Adavosertib + Phenformin = compound: C=CCn1c(=O)c2cnc(Nc3ccc(N4CCN(C)CC4)cc3)nc2n1-c1cccc(C(C)(C)O)n1 [Adavosertib] + N=C(N)NC(=N)NCCc1ccccc1 [Phenformin] (partner 250 µM)
Summary of the method: as §1

Nelarabine + Luminespib = compound: COc1nc(N)nc2c1ncn2[C@@H]1O[C@H](CO)[C@@H](O)[C@@H]1O [Nelarabine] + CCNC(=O)c1noc(-c2cc(C(C)C)c(O)cc2O)c1-c1ccc(CN2CCOCC2)cc1 [Luminespib] (partner 0.01 µM)
Summary of the method: as §1

Cell Line	relative viability (Adavosertib + Linsitinib; first compound 0.01 µM)	relative viability (Adavosertib + Linsitinib; first compound 0.03162 µM)	relative viability (Adavosertib + Linsitinib; first compound 0.1 µM)	relative viability (Adavosertib + Linsitinib; first compound 0.3162 µM)	relative viability (Adavosertib + OSI-027; first compound 0.01 µM)	relative viability (Adavosertib + OSI-027; first compound 0.03162 µM)	relative viability (Adavosertib + OSI-027; first compound 0.1 µM)	relative viability (Adavosertib + OSI-027; first compound 0.3162 µM)	relative viability (Adavosertib + Phenformin; first compound 0.01 µM)	relative viability (Adavosertib + Phenformin; first compound 0.03162 µM)	relative viability (Adavosertib + Phenformin; first compound 0.1 µM)	relative viability (Adavosertib + Phenformin; first compound 0.3162 µM)	relative viability (Nelarabine + Luminespib; first compound 0.01 µM)	relative viability (Nelarabine + Luminespib; first compound 0.1 µM)	relative viability (Nelarabine + Luminespib; first compound 0.3162 µM)	relative viability (Nelarabine + Luminespib; first compound 1 µM)	relative viability (Nelarabine + Luminespib; first compound 0.03162 µM)
HCC-366	0.62	0.802	0.659	0.774	0.964	1.02	0.897	0.889	0.622	0.678	0.626	0.674	–	–	–	–	–
HCC-78	0.597	0.422	0.522	0.562	0.355	0.354	0.325	0.339	0.582	0.744	0.821	0.704	–	–	–	–	–
NCI-H358	0.747	0.675	0.547	0.374	0.786	0.913	0.637	0.326	0.288	0.295	0.322	0.24	0.409	0.28	0.308	0.309	–
NCI-H23	0.53	0.612	0.444	0.29	0.604	0.631	0.553	0.327	0.732	0.759	0.838	0.585	0.226	0.23	0.225	0.21	0.201
PC-14	0.915	0.957	0.942	0.575	0.916	0.835	0.846	0.114	0.508	0.619	0.671	0.291	0.145	0.118	0.178	0.151	0.177
SW 900	–	–	–	–	–	0.554	0.494	0.436	–	0.75	0.564	0.387	0.175	0.173	0.179	0.179	0.175
NCI-H1650	–	–	–	–	0.447	0.775	0.563	0.384	0.361	0.392	0.445	0.205	0.195	0.225	0.234	0.204	0.181
H3255	0.967	1.01	0.993	0.957	0.506	0.654	0.584	0.539	0.351	0.369	0.363	0.336	–	1	0.853	0.737	0.889
NCI-H1563	1.17	1.24	1.18	1.2	0.737	0.812	0.766	0.757	0.692	0.603	0.667	0.642	0.527	0.584	0.549	0.564	0.58
A549	0.654	0.553	0.634	0.52	–	–	–	–	0.218	0.229	0.14	0.173	–	–	–	–	–
UMC-11	0.959	0.99	1.19	1.02	0.48	0.442	0.432	0.444	0.341	0.315	0.318	0.29	1.24	1.03	0.973	0.893	0.961
LOU-NH91	1	0.938	0.964	0.871	0.65	0.707	0.742	0.677	0.661	0.743	0.687	0.725	0.392	0.354	0.346	0.356	0.45
NCI-H1299	0.963	0.985	0.996	0.95	–	–	–	–	–	–	–	–	–	–	–	–	–
HCC-44	0.628	0.659	0.683	0.794	0.525	0.484	0.538	0.578	0.255	0.237	0.192	0.181	1.33	0.965	1.1	1.24	1.34
NCI-H1437	1.08	1.11	1.12	1.09	0.931	0.868	0.973	0.788	0.388	0.308	0.275	0.285	1.3	1.13	1.21	1.02	1.02
HARA	0.907	1.06	0.98	0.97	0.485	0.486	0.591	0.368	0.513	0.476	0.548	0.361	0.77	1	0.863	0.749	0.84
EBC-1	0.91	0.962	0.994	1.18	–	–	–	–	–	–	–	–	–	–	–	–	–
NCI-H2085	0.872	0.996	0.988	0.827	0.857	0.808	0.689	0.87	0.668	0.757	0.784	0.761	0.498	0.427	0.518	0.434	0.48
NCI-H322M	–	0.789	0.982	0.535	0.621	0.547	0.451	0.312	0.737	0.759	0.656	0.342	0.917	0.79	0.834	0.967	0.84
